Assay results published in article PMC12102759 (Protein Science : A Publication of the Protein Society, 2025).
Like-named read-outs stand apart in the source and are kept apart here.

System: PABPC1 PABC
Assay type: binding, human
Conditions: DMS-BM library, bait PABPC1 PABC, row aa = residue at this position; for DMS-derived PSSM value, position R14 / DMS-derived PSSM value, position R12: R = wild type; for DMS-derived PSSM value (averaged), position N10 / DMS-derived PSSM value, position N7 / DMS-derived PSSM value, position N5 / DMS-derived PSSM value, position N12 / DMS-derived PSSM value, position N10 / DMS-derived PSSM value, position N3: N = wild type
[1] = prey ATXN2, peptide TLNPNAKEFNPRSFSQ, K = wild type
[2] = prey ATXN2, peptide TLNPNAKEFNPRSFSQ, F = wild type
[3] = prey ATXN2, TLNPNAKEFNPRSF(averaged) over the two overlapping peptides, F = wild type
[4] = prey ATXN2, peptide TLNPNAKEFNPRSFSQ, L = wild type
[5] = prey ATXN2, peptide KSTLNPNAKEFNPRSF, S = wild type
[6] = prey ATXN2, TLNPNAKEFNPRSF(averaged) over the two overlapping peptides, T = wild type
[7] = prey ATXN2, peptide KSTLNPNAKEFNPRSF, F = wild type
[8] = prey ATXN2, TLNPNAKEFNPRSF(averaged) over the two overlapping peptides, S = wild type
[9] = prey ATXN2, peptide KSTLNPNAKEFNPRSF
[10] = prey ATXN2, TLNPNAKEFNPRSF(averaged) over the two overlapping peptides
[11] = prey ATXN2, peptide TLNPNAKEFNPRSFSQ, S = wild type
[12] = prey ATXN2, peptide TLNPNAKEFNPRSFSQ
[13] = prey ATXN2, peptide KSTLNPNAKEFNPRSF, P = wild type
[14] = prey ATXN2, peptide KSTLNPNAKEFNPRSF, E = wild type
[15] = prey ATXN2, TLNPNAKEFNPRSF(averaged) over the two overlapping peptides, L = wild type
[16] = prey ATXN2, peptide TLNPNAKEFNPRSFSQ, P = wild type

TLNPNAKEFNPRSFSQ K7Y (TLNPNAYEFNPRSFSQ)
DMS-derived PSSM value, position K7 [1]: 0.472

TLNPNAKEFNPRSFSQ F9W (TLNPNAKEWNPRSFSQ)
DMS-derived PSSM value, position F9 [2]: 0.6528

TLNPNAKEFNPRSFSQ F9Y (TLNPNAKEYNPRSFSQ)
DMS-derived PSSM value, position F9 [2]: 0.02013

TLNPNAKEFNPRSF(averaged) F14I (TLNPNAKEFNPRSI)
DMS-derived PSSM value (averaged), position F14 [3]: 0.0374

TLNPNAKEFNPRSFSQ L2E (TENPNAKEFNPRSFSQ)
DMS-derived PSSM value, position L2 [4]: 0.08907

KSTLNPNAKEFNPRSF S15M (KSTLNPNAKEFNPRMF)
DMS-derived PSSM value, position S15 [5]: 0.01897

KSTLNPNAKEFNPRSF T3P (KSPLNPNAKEFNPRSF)
DMS-derived PSSM value, position T3 (prey ATXN2, peptide KSTLNPNAKEFNPRSF, T = wild type): 0.005473

TLNPNAKEFNPRSF(averaged) T1D (DLNPNAKEFNPRSF)
DMS-derived PSSM value (averaged), position T1 [6]: 0.05337

KSTLNPNAKEFNPRSF F16I (KSTLNPNAKEFNPRSI)
DMS-derived PSSM value, position F16 [7]: 0.0559

TLNPNAKEFNPRSF(averaged) S13F (TLNPNAKEFNPRFF)
DMS-derived PSSM value (averaged), position S13 [8]: 0.01382

TLNPNAKEFNPRSFSQ F9S (TLNPNAKESNPRSFSQ)
DMS-derived PSSM value, position F9 [2]: 0

TLNPNAKEFNPRSF(averaged) T1E (ELNPNAKEFNPRSF)
DMS-derived PSSM value (averaged), position T1 [6]: 0.1201

KSTLNPNAKEFNPRSF R14E (KSTLNPNAKEFNPESF)
DMS-derived PSSM value, position R14 [9]: 0.01157

TLNPNAKEFNPRSF(averaged) N10I (TLNPNAKEFIPRSF)
DMS-derived PSSM value (averaged), position N10 [10]: 0.01803

KSTLNPNAKEFNPRSF N7Y (KSTLNPYAKEFNPRSF)
DMS-derived PSSM value, position N7 [9]: 0.00548

KSTLNPNAKEFNPRSF N5R (KSTLRPNAKEFNPRSF)
DMS-derived PSSM value, position N5 [9]: 0

TLNPNAKEFNPRSFSQ S15M (TLNPNAKEFNPRSFMQ)
DMS-derived PSSM value, position S15 [11]: 0.1078

KSTLNPNAKEFNPRSF N7A (KSTLNPAAKEFNPRSF)
DMS-derived PSSM value, position N7 [9]: 0.01018

TLNPNAKEFNPRSFSQ E8F (TLNPNAKFFNPRSFSQ)
DMS-derived PSSM value, position E8 (prey ATXN2, peptide TLNPNAKEFNPRSFSQ, E = wild type): 0

KSTLNPNAKEFNPRSF N5Y (KSTLYPNAKEFNPRSF)
DMS-derived PSSM value, position N5 [9]: 0.01612

TLNPNAKEFNPRSFSQ R12D (TLNPNAKEFNPDSFSQ)
DMS-derived PSSM value, position R12 [12]: 0.05154

TLNPNAKEFNPRSFSQ K7M (TLNPNAMEFNPRSFSQ)
DMS-derived PSSM value, position K7 [1]: 0.0004181

TLNPNAKEFNPRSF(averaged) F14G (TLNPNAKEFNPRSG)
DMS-derived PSSM value (averaged), position F14 [3]: 0.002756

TLNPNAKEFNPRSFSQ N5F (TLNPFAKEFNPRSFSQ)
DMS-derived PSSM value, position N5 [12]: 0.006389

KSTLNPNAKEFNPRSF N12E (KSTLNPNAKEFEPRSF)
DMS-derived PSSM value, position N12 [9]: 0.06073

KSTLNPNAKEFNPRSF N5M (KSTLMPNAKEFNPRSF)
DMS-derived PSSM value, position N5 [9]: 0

TLNPNAKEFNPRSFSQ N10T (TLNPNAKEFTPRSFSQ)
DMS-derived PSSM value, position N10 [12]: 0.03853

TLNPNAKEFNPRSFSQ L2Q (TQNPNAKEFNPRSFSQ)
DMS-derived PSSM value, position L2 [4]: 0

KSTLNPNAKEFNPRSF R14A (KSTLNPNAKEFNPASF)
DMS-derived PSSM value, position R14 [9]: 0.09772

TLNPNAKEFNPRSF(averaged) S13W (TLNPNAKEFNPRWF)
DMS-derived PSSM value (averaged), position S13 [8]: 0.01751

KSTLNPNAKEFNPRSF F16E (KSTLNPNAKEFNPRSE)
DMS-derived PSSM value, position F16 [7]: 0.01536

KSTLNPNAKEFNPRSF P13H (KSTLNPNAKEFNHRSF)
DMS-derived PSSM value, position P13 [13]: 0

TLNPNAKEFNPRSFSQ N3F (TLFPNAKEFNPRSFSQ)
DMS-derived PSSM value, position N3 [12]: 0

TLNPNAKEFNPRSF(averaged) N10T (TLNPNAKEFTPRSF)
DMS-derived PSSM value (averaged), position N10 [10]: 0.03227

TLNPNAKEFNPRSFSQ N10L (TLNPNAKEFLPRSFSQ)
DMS-derived PSSM value, position N10 [12]: 0.1974

KSTLNPNAKEFNPRSF E10Y (KSTLNPNAKYFNPRSF)
DMS-derived PSSM value, position E10 [14]: 0

TLNPNAKEFNPRSFSQ A6L (TLNPNLKEFNPRSFSQ)
DMS-derived PSSM value, position A6 (prey ATXN2, peptide TLNPNAKEFNPRSFSQ, A = wild type): 0

KSTLNPNAKEFNPRSF P6W (KSTLNWNAKEFNPRSF)
DMS-derived PSSM value, position P6 [13]: 0

TLNPNAKEFNPRSF(averaged) S13Q (TLNPNAKEFNPRQF)
DMS-derived PSSM value (averaged), position S13 [8]: 0.009251

TLNPNAKEFNPRSF(averaged) F14V (TLNPNAKEFNPRSV)
DMS-derived PSSM value (averaged), position F14 [3]: 0.12

KSTLNPNAKEFNPRSF E10I (KSTLNPNAKIFNPRSF)
DMS-derived PSSM value, position E10 [14]: 0

KSTLNPNAKEFNPRSF L4T (KSTTNPNAKEFNPRSF)
DMS-derived PSSM value, position L4 (prey ATXN2, peptide KSTLNPNAKEFNPRSF, L = wild type): 0

TLNPNAKEFNPRSFSQ F9V (TLNPNAKEVNPRSFSQ)
DMS-derived PSSM value, position F9 [2]: 0.0008789

TLNPNAKEFNPRSF(averaged) F9T (TLNPNAKETNPRSF)
DMS-derived PSSM value (averaged), position F9 [3]: 0.02947

KSTLNPNAKEFNPRSF N12D (KSTLNPNAKEFDPRSF)
DMS-derived PSSM value, position N12 [9]: 0.009433

KSTLNPNAKEFNPRSF P6L (KSTLNLNAKEFNPRSF)
DMS-derived PSSM value, position P6 [13]: 0.1435

TLNPNAKEFNPRSF(averaged) K7S (TLNPNASEFNPRSF)
DMS-derived PSSM value (averaged), position K7 (prey ATXN2, TLNPNAKEFNPRSF(averaged) over the two overlapping peptides, K = wild type): 0.03571

TLNPNAKEFNPRSF(averaged) L2R (TRNPNAKEFNPRSF)
DMS-derived PSSM value (averaged), position L2 [15]: 0

TLNPNAKEFNPRSFSQ L2W (TWNPNAKEFNPRSFSQ)
DMS-derived PSSM value, position L2 [4]: 0.1455

TLNPNAKEFNPRSFSQ P11F (TLNPNAKEFNFRSFSQ)
DMS-derived PSSM value, position P11 [16]: 0.1255

TLNPNAKEFNPRSFSQ R12G (TLNPNAKEFNPGSFSQ)
DMS-derived PSSM value, position R12 [12]: 0.02158

KSTLNPNAKEFNPRSF S15I (KSTLNPNAKEFNPRIF)
DMS-derived PSSM value, position S15 [5]: 0.03802

TLNPNAKEFNPRSF(averaged) L2N (TNNPNAKEFNPRSF)
DMS-derived PSSM value (averaged), position L2 [15]: 0

TLNPNAKEFNPRSF(averaged) S13M (TLNPNAKEFNPRMF)
DMS-derived PSSM value (averaged), position S13 [8]: 0.01383

TLNPNAKEFNPRSF(averaged) F14H (TLNPNAKEFNPRSH)
DMS-derived PSSM value (averaged), position F14 [3]: 0.06346

TLNPNAKEFNPRSFSQ P4T (TLNTNAKEFNPRSFSQ)
DMS-derived PSSM value, position P4 [16]: 0.02934

TLNPNAKEFNPRSFSQ S15K (TLNPNAKEFNPRSFKQ)
DMS-derived PSSM value, position S15 [11]: 0.007327

KSTLNPNAKEFNPRSF S15T (KSTLNPNAKEFNPRTF)
DMS-derived PSSM value, position S15 [5]: 0.007163

TLNPNAKEFNPRSF(averaged) T1R (RLNPNAKEFNPRSF)
DMS-derived PSSM value (averaged), position T1 [6]: 0.04124

KSTLNPNAKEFNPRSF N12R (KSTLNPNAKEFRPRSF)
DMS-derived PSSM value, position N12 [9]: 0.008293

KSTLNPNAKEFNPRSF N7G (KSTLNPGAKEFNPRSF)
DMS-derived PSSM value, position N7 [9]: 0

KSTLNPNAKEFNPRSF K9S (KSTLNPNASEFNPRSF)
DMS-derived PSSM value, position K9 (prey ATXN2, peptide KSTLNPNAKEFNPRSF, K = wild type): 0.05789

TLNPNAKEFNPRSF(averaged) N10G (TLNPNAKEFGPRSF)
DMS-derived PSSM value (averaged), position N10 [10]: 0.02059

TLNPNAKEFNPRSFSQ N3Y (TLYPNAKEFNPRSFSQ)
DMS-derived PSSM value, position N3 [12]: 0

TLNPNAKEFNPRSFSQ N10F (TLNPNAKEFFPRSFSQ)
DMS-derived PSSM value, position N10 [12]: 0.002727

TLNPNAKEFNPRSFSQ S13W (TLNPNAKEFNPRWFSQ)
DMS-derived PSSM value, position S13 [11]: 0.02517

KSTLNPNAKEFNPRSF S2Q (KQTLNPNAKEFNPRSF)
DMS-derived PSSM value, position S2 [5]: 0.001157

KSTLNPNAKEFNPRSF S15R (KSTLNPNAKEFNPRRF)
DMS-derived PSSM value, position S15 [5]: 0.007958

TLNPNAKEFNPRSF(averaged) A6Q (TLNPNQKEFNPRSF)
DMS-derived PSSM value (averaged), position A6 (prey ATXN2, TLNPNAKEFNPRSF(averaged) over the two overlapping peptides, A = wild type): 0

TLNPNAKEFNPRSFSQ F14P (TLNPNAKEFNPRSPSQ)
DMS-derived PSSM value, position F14 [2]: 0.06984
